This is an account of results in US20210395210A1, “INHIBITION OF BACTERIAL CHAPERONIN SYSTEMS” (THE TRUSTEES OF INDIANA UNIVERSITY, priority 2018, published 2021).

Where two headings read alike, the source gives them in different places.

Experiment [1] deals with T1, human HSP60/10 (Homo sapiens, UniProt P10809).
T1 construct: octa-Histidine tag (TEV-cleavable) (N, cleaved yes); made in house; host or cells: HSP60 in E. coli Rosetta 2 (DE3); HSP10 in Rosetta 2 (DE3) pLysS
In words: HSP60/10-mediated dMDH refolding assay. It is filed as biochemical. The following applies: human HSP60/10-dMDH refolding assay. An outline of the steps:
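Preformed HSP60/10 (or GroEL/ES) complex with guanidine-denatured pig heart MDH was started with ATP (during refolding: 50 nM HSP60, 60 nM HSP10, 12 nM dMDH, 1 mM ATP; compounds 100 μM to 46 nM) at 37° C, then EDTA-quenched. Refolded MDH activity read as A340 NADH consumption with mesoxalate.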

Experiment [2] has as its system Enterococcus faecium (ATCC 19434). Briefly: Bacterial proliferation assay, E. faecium. It is filed as cell-based. The procedure, abridged: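 Enterococcus faecium ATCC 19434 was grown overnight at 37° C. in BHI broth supplemented with 25 mg/L Ca^2+ and 12.5 mg/L Mg^2+, subcultured 1:5, and diluted to OD600 0.017. 30 μL portions went into 384-well plates holding compounds, sealed with oxygen-permeable membranes, and incubated stagnant at 37° C. OD600 was read at 24 h to give EC50.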

For experiment [3], the system named is Pseudomonas aeruginosa (ATCC 10145). Briefly: Bacterial proliferation assay, P. aeruginosa. It is filed as cell-based. An outline of the steps:
(§1)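 Cultures in BHI broth with 25 mg/L Ca2+ and 12.5 mg/L Mg2+ were diluted to OD600 0.017 and exposed to compounds in 384-well plates at 37 °C without shaking. OD600 was read at 6-8 h (S. aureus, E. cloacae, P. aeruginosa) or 24 h (A. baumannii). EC50 values were averaged over quadruplicates.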

In experiment [4] the test system is Drug sensitive Staphylococcus aureus (ATCC 25923). In words: Bacterial proliferation assay, drug sensitive S. aureus. It is filed as cell-based. The procedure, abridged:
as §1

For experiment [5], the system named is Enterobacter cloacae (ATCC 13047). Briefly: Bacterial proliferation assay, E. cloacae. It is filed as cell-based. An outline of the steps: as §1
Where [6] appears, read: read-out: HSP60/10-dMDH Refolding IC50.
Setting [7] is: log(IC50) ± standard deviation, read-out: HSP60/10-dMDH Refolding Assay log(IC50) (converted).
Where [8] appears, read: ATCC19434, OD600 at 24 h, read-out: Bacterial Proliferation EC50 E. faecium.
Setting [9] is: ATCC19434, log of EC50 (μM scale), with standard deviation, read-out: log(EC50) Bacterial Proliferation Assay C. faecium (converted).
The mark [10] stands for this setting: ATCC10145, OD600 at 6-8 h, read-out: Bacterial Proliferation EC50 P. aeruginosa.
Setting [11] is: ATCC10145, log of EC50 (μM scale), with standard deviation, read-out: log(EC50) Bacterial Proliferation Assay P. aeruginosa (converted).
The mark [12] stands for this setting: ATCC25923, OD600 at 6-8 h, read-out: Bacterial Proliferation EC50 S. aureus Sensitive.
Where [13] appears, read: ATCC25923, log of EC50 (μM scale), with standard deviation, read-out: log(EC50) Bacterial Proliferation Assay S. aureus Sensitive (converted).
[14] abbreviates: ATCC13047, OD600 at 6-8 h, read-out: Bacterial Proliferation EC50 E. cloacae.
[15] abbreviates: ATCC13047, log of EC50 (μM scale), with standard deviation, read-out: log(EC50) Bacterial Proliferation Assay E. cloacae (converted).
The mark [16] stands for this setting: ATCC19434, 24 h, read-out: Bacterial Proliferation EC50 E. faecium.
[17] abbreviates: ATCC19434, read-out: log(EC50) Bacterial Proliferation Assay C. faecium (converted).
Where [18] appears, read: ATCC10145, read-out: Bacterial Proliferation EC50 P. aeruginosa.
Setting [19] is: ATCC10145, read-out: log(EC50) Bacterial Proliferation Assay P. aeruginosa (converted).
Where [20] appears, read: ATCC25923, read-out: Bacterial Proliferation EC50 S. aureus Sensitive.
The mark [21] stands for this setting: ATCC25923, read-out: S. aureus Proliferation & Biofilm Assay EC50 Planktonic Growth.
Where [22] appears, read: ATCC25923, read-out: log(EC50) Bacterial Proliferation Assay S. aureus Sensitive (converted).
Setting [23] is: ATCC13047, read-out: Bacterial Proliferation EC50 E. cloacae.
The mark [24] stands for this setting: ATCC13047, read-out: log(EC50) Bacterial Proliferation Assay E. cloacae (converted).

T1 sequence (P10809 27-573): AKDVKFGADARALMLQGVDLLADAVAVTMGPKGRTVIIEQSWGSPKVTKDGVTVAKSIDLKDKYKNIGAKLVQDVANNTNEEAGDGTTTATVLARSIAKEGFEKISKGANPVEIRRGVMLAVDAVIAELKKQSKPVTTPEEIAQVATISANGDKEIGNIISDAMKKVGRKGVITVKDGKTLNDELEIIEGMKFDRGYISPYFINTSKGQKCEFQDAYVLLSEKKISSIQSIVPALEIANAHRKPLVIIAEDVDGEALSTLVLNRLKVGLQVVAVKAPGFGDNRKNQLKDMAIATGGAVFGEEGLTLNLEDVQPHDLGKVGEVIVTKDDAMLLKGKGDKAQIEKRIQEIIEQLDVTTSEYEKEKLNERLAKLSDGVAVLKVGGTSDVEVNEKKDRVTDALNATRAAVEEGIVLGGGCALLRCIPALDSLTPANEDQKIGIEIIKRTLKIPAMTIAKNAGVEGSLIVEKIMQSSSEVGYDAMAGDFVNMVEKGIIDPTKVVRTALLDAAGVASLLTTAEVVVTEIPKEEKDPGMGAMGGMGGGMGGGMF

`O=C(Nc1ccccc1)c1cccc(Br)c1O` [Compound 14, 3-Bromo-2-hydroxy-N-phenylbenzamide]: the IC50 in experiment [1] (setting [6]) and in experiment [1] (setting [7]) was over 100 µM each time. In addition, the EC50 in experiment [2] (setting [8]) is over 100 µM; in experiment [2] (setting [9]) it was over 100 µM; in experiment [3] (setting [10]), over 100 µM; in experiment [3] (setting [11]) it was over 100 µM; in experiment [4] (setting [12]) it was 6.4 µM; in experiment [4] (setting [13]) it was 6.46 µM. Besides, the EC50 in experiment [5] (setting [14]) and in experiment [5] (setting [15]) was over 100 µM in each case.

For `O=C(Nc1ccc(Sc2nc3ccccc3s2)cc1)c1cc(Br)cc(Br)c1O` [Compound 5, N-(4-(Benzo[d]thiazol-2-ylthio)phenyl)-3,5-dibromo-2-hydroxybenzamide], the IC50 in experiment [1] (setting [6]) was 4.7 µM; in experiment [1] (setting [7]) it was 4.68 µM. In addition, the EC50 in experiment [2] (setting [16]) was 0.88 µM; in experiment [2] (setting [17]) it was 0.891 µM; in experiment [3] (setting [18]) it was over 100 µM; in experiment [3] (setting [19]), over 100 µM; in experiment [4] (setting [20]), 0.44 µM; in experiment [4] (setting [21]) it was 0.44 µM. Further, the EC50 in experiment [4] (setting [22]) is 0.437 µM; in experiment [5] (setting [23]), over 100 µM; in experiment [5] (setting [24]), over 100 µM.

Consider `COc1ccccc1C(=O)Nc1ccccc1` [Compound 44, 2-Methoxy-N-phenylbenzamide], for which the IC50 in experiment [1] (setting [6]) and in experiment [1] (setting [7]) was over 100 µM in each case. In addition, the EC50 in experiment [2] (setting [8]), in experiment [2] (setting [9]), in experiment [3] (setting [10]), in experiment [3] (setting [11]), in experiment [4] (setting [12]) and in experiment [4] (setting [13]) was over 100 µM in each case. The EC50 in experiment [5] (setting [14]) and in experiment [5] (setting [15]) was over 100 µM in each case.

Turning to `COc1ccccc1C(=O)Nc1ccc(Sc2nc3ccccc3s2)cc1` [Compound 36, N-(4-(Benzo[d]thiazol-2-ylthio)phenyl)-2-methoxybenzamide], the IC50 in experiment [1] (setting [6]) and in experiment [1] (setting [7]) was over 100 µM in each case. Also, the EC50 in experiment [2] (setting [8]), in experiment [2] (setting [9]), in experiment [3] (setting [10]), in experiment [3] (setting [11]), in experiment [4] (setting [12]) and in experiment [4] (setting [13]) was over 100 µM in each case. Further, the EC50 in experiment [5] (setting [14]) and in experiment [5] (setting [15]) was over 100 µM each time.

As to `O=C(Nc1ccccc1)c1cc(Br)cc(Br)c1O` [Compound 13, 3,5-Dibromo-2-hydroxy-N-phenylbenzamide], the IC50 in experiment [1] (setting [6]) was 63 µM; in experiment [1] (setting [7]), 63.1 µM. In addition, the EC50 was over 100 µM in experiment [2] (setting [16]); over 100 µM in experiment [2] (setting [17]); over 100 µM in experiment [3] (setting [18]); over 100 µM in experiment [3] (setting [19]); 1.2 µM in experiment [4] (setting [20]); 1.23 µM in experiment [4] (setting [22]). Moreover, the EC50 in experiment [5] (setting [23]) and in experiment [5] (setting [24]) was over 100 µM throughout.

Turning to `O=C(Nc1ccc(Sc2nc3ccccc3s2)c(Cl)c1)c1ccccc1O` [Compound 4, N-(4-(Benzo[d]thiazol-2-ylthio)-3-chlorophenyl)-2-hydroxybenzamide], the IC50 in experiment [1] (setting [6]) and in experiment [1] (setting [7]) was over 100 µM in each case. In addition, the EC50 in experiment [2] (setting [8]) is 64 µM; in experiment [2] (setting [9]), 63.1 µM; in experiment [3] (setting [10]), over 100 µM; in experiment [3] (setting [11]), over 100 µM; in experiment [4] (setting [12]) it was 0.31 µM; in experiment [4] (setting [13]), 0.309 µM. Further, the EC50 in experiment [5] (setting [14]) and in experiment [5] (setting [15]) was over 100 µM in each case.

With `O=C(Nc1cccc(Cl)c1)c1cc(Br)ccc1O` [Compound 11, 5-Bromo-N-(3-chlorophenyl)-2-hydroxybenzamide], the IC50 in experiment [1] (setting [6]) and in experiment [1] (setting [7]) was over 100 µM each time. Also, the EC50 is over 100 µM in experiment [2] (setting [16]); over 100 µM in experiment [2] (setting [17]); over 100 µM in experiment [3] (setting [18]); over 100 µM in experiment [3] (setting [19]); 0.46 µM in experiment [4] (setting [20]); 0.46 µM in experiment [4] (setting [21]). Besides, the values for the EC50 in experiment [4] (setting [22]), in experiment [5] (setting [23]) and in experiment [5] (setting [24]) were 0.457 µM, over 100 µM and over 100 µM, respectively.
